Assay results published in patent publication US20200115357A1, “LIVER X RECEPTORS (LXR) MODULATORS” (Phenex-FXR GmbH, priority 2017, published 2020).

Columns and labels:
[1] = biological target: T1, GST-LXRβ ligand-binding domain (Homo sapiens, UniProt P55055, DUP175-175); experiment: TR-FRETβ activity assay (LXRβ-LBD / NCoA3 coactivator peptide, prestimulated with 24(S)-25-epoxycholesterol); format: biochemical; set-up: key to behavior in FRET assay: ag=agonist; ia=inverse agonist; settings: for EC50: 1 μM 24(S)-25-epoxycholesterol as prestimulating agonist, read-out: FRETβ activity range (EC50); for behavior in FRET assay: agonist or inverse agonist
T1 construct: amino acids 156-461; NP009052; made in house; host or cells: E. coli
T1 sequence (P55055 with tags, fused parts or gaps DUP175-175): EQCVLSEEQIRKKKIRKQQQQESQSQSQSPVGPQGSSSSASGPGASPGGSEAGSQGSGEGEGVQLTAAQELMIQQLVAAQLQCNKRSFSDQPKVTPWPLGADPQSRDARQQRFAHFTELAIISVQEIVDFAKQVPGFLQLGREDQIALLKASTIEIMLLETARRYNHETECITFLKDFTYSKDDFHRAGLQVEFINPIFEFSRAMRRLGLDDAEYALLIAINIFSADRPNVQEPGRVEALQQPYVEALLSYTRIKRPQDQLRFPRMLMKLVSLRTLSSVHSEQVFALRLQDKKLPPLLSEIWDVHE
Outline: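 E. coli-expressed GST-LXRβ LBD (aa 156-461) at 76 nM with biotinylated NCoA3 coactivator peptide (400 nM), in 240 mM KCl, BSA and Triton-X-100. Anti-GST-Tb cryptate/streptavidin-XL665 TR-FRET after 1 h equilibration at 4 °C, excitation 340 nm, emission 615 and 665 nm. Run in triplicate.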

[2] = Pharmacokinetics in mice, blood and liver exposure via LC-MS; format: in vivo; settings: for target tissue liver reached (in words): mice, systemic exposure minimized; for liver/blood ratio, 4 h / blood exposure, 4 h / liver exposure, 4 h: Dose (mg) 20, C57BL/6J mice; for blood exposure, 4 h / liver exposure, 4 h: 4 h after administration
Method: The pharmacokinetics of different sulfonamides was assessed in mice after single dosing and oral and intraperitoneal administrations. Blood and liver exposure was measured via LC-MS.
The study design was as follows:
Animals: C57BL/6J (Janvier) males
Diet: standard rodent chow
Vehicle for i.p. injection: 0.5% HPMC (w:v) in water, injection volume: <5 mL/kg
Animal handling: animals were withdrawn from food at least 12 h before administration
Design: single dose oral and bid ip administration, n=3 animals per group
Sacrifice: at t=4 h after administration
Bioanalytics: LC-MS of liver and blood samples

Structure (SMILES) | EC50 [1] | behavior in FRET assay [1] | target tissue liver reached (in words) [2] | liver/blood ratio, 4 h ([2]; po) | blood exposure, 4 h ([2]; po) | liver exposure, 4 h ([2]; po) | liver/blood ratio, 4 h ([2]; ip) | blood exposure, 4 h ([2]; ip) | liver exposure, 4 h ([2]; ip)
Cc1cc(C)c(S(=O)(=O)N(Cc2ccc(-c3cccc(CC(=O)O)c3)cc2)C(C)c2ccc(C(F)(F)F)o2)c(C)c1 (stereo not shown) [2/2] | 100 to 1000 nM | ia |  |  |  |  |  |  | 
Cc1cc(C)c(S(=O)(=O)N(Cc2ccc(-c3cccc(S(=O)(=O)C(C)(C)C(=O)O)c3)cc2)Cc2ccc(C(F)(F)F)o2)c(C)c1 [5/2] | 1000 to 10000 nM | ia |  |  |  |  |  |  | 
Cc1cc(C)c(S(=O)(=O)N(Cc2ccc(-c3cccc(C(C)(C)C(=O)O)c3)cc2)Cc2ccc(C(F)(F)F)o2)c(C)c1 [7/5] | 100 to 1000 nM | ia | effectively reached | po: 18 | po: 300 ng/mL | po: 5398 ng/mL |  |  | 
COc1cc(-c2cccc(C(C)(C)C(=O)O)c2)ccc1CN(Cc1ccc(C(F)(F)F)o1)S(=O)(=O)c1c(C)cc(C)cc1C [10/4] | < 100 nM | ia | effectively reached | po: 11 | po: 189 ng/mL | po: 2136 ng/mL |  |  | 
Cc1cc(C)c(S(=O)(=O)N(Cc2ccc(C(F)(F)F)o2)Cc2ccc(-c3cccc(C(C)(C)C(=O)O)c3)cc2Cl)c(C)c1 [10/5] | < 100 nM | ia | effectively reached | po: 21 | po: 242 ng/mL | po: 5120 ng/mL |  |  | 
Cc1ccc2ccccc2c1S(=O)(=O)N(Cc1ccc(-c2cccc(S(=O)(=O)CC(=O)O)c2)cc1)Cc1cccc(C(F)(F)F)c1 [11/19] | 1000 to 10000 nM | ia | effectively reached | po: 125 | po: 0.01 μM | po: 1.07 μM |  |  | 
Cc1cc(C)c(S(=O)(=O)N(Cc2ccc(-c3cccc(CC(=O)O)c3)cc2)Cc2ccc(C(F)(F)F)o2)c(C)c1 [Example 2, 2-(4′-(((2,4,6-Trimethyl-N-((5-(trifluoromethyl)furan-2-yl)methyl)phenyl)sulfonamido)methyl)-[1,1′-biphenyl]-3-yl)acetic acid] | 100 to 1000 nM | ia |  |  |  |  |  |  | 
Cc1cc(C)c(S(=O)(=O)N(Cc2ccc(-c3cccc(S(=O)(=O)CC(=O)O)c3)cc2)Cc2ccc(C(F)(F)F)o2)c(C)c1 [Example 5, 2-((4′-(((2,4,6-Trimethyl-N-((5-(trifluoromethyl)furan-2-yl)methyl)phenyl)sulfonamido)methyl)-[1,1′-biphenyl]-3-yl)sulfonyl)acetic acid] | 1000 to 10000 nM |  | effectively reached | po: 31 | po: 0.15 μM | po: 4.6 μM | ip: 27 | ip: 0.34 μM | ip: 9.3 μM
Cc1ccc2ccccc2c1S(=O)(=O)N(Cc1ccc(-c2cccc(C(C)(C)C(=O)O)c2)cc1)Cc1ccc(C(F)(F)F)o1 [Example 24, 2-Methyl-2-(4′-(((2-methyl-N-((5-(trifluoromethyl)furan-2-yl)methyl)naphthalene)-1-sulfonamido)methyl)-[1,1′-biphenyl]-3-yl)propanoic acid] | < 100 nM | ia | effectively reached | po: 25 | po: 231 ng/mL | po: 5882 ng/mL |  |  | 
Cc1cc(C)c(S(=O)(=O)N(Cc2ccc(-c3cc(F)c(CO)c(S(C)(=O)=O)c3)cc2)Cc2ccc(C(F)(F)F)o2)c(C)c1 [Example C3/2] | < 100 nM | ia |  | po: 0.56 | po: 115 ng/mL | po: 64 ng/mL |  |  | 
